Data as given in US7919504B2, “Thiadiazole modulators of PKB” (Amgen Inc., priority 2007, dated 2011).
Structures can show the parent of a compound that is named as a salt.

Target: T1, PKBα (Homo sapiens, UniProt P31749)
T1 construct: the full length PKBα and a kinase domain of PKBα with pleckstrin domain (amino acids 1-117) deleted
Assay: PKB kinase assay (P33-labeled ATP, synthetic peptide substrate, filter plate capture)
Type: biochemical
Settings: with respect to PKBα
Source text: The kinase assay for evaluating PKB activity comprises active PKB enzymes, a PKB specific substrate, and P^33-labeled ATP. Two form of PKBα enzymes were used, the full length PKBα and a kinase domain of PKBα with pleckstrin domain (amino acids 1-117) deleted. Both PKB enzymes were obtained from Upstate cell signaling solutions (Cat. #14-276 and 14-341). The PKB substrate used is a synthetic peptide (ARKRERTYSFGHHA (SEQ ID NO: 1)) as described in Obata et al., J. Biol. Chem. 275 (46), 36108-36115 (2000). The phosphorylated substrate was captured by a phosphocellulose membrane filter plate (MILLIPORE) and measured by a Wallac Microbeta liquid scintillation counter (Perkin Elmer). Table 1 provides the IC50 values obtained for each of the examples with respect to PKBα.

T1 sequence (P31749 118-480 limits assumed): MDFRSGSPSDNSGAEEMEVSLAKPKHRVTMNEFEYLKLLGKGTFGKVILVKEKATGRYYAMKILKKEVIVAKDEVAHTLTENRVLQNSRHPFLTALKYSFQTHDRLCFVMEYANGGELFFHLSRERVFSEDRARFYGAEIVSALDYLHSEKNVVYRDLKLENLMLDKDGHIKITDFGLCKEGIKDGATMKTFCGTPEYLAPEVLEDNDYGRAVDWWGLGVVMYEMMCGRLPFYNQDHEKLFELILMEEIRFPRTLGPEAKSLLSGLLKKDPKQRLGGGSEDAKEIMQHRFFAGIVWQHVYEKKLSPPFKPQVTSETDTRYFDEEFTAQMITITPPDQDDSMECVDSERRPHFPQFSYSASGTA

Compound	IC50 [nM]
c1ccc2[nH]c(CCNc3nnc(-c4ccc5cnccc5c4)s3)nc2c1 [Example 19, N-(2-(1H-Benzo[d]imidazol-2-yl)ethyl)-5-(isoquinolin-6-yl)-1,3,4-thiadiazol-2-amine]	1000 to 10000
CC1(C)C2CCC1(C)C(Nc1nnc(-c3ccc4cnccc4c3)s1)C2 (stereo not shown) [Example 20, 5-(Isoquinolin-6-yl)-N-(1,7,7-trimethylbicyclo[2.2.1]heptan-2-yl)-1,3,4-thiadiazol-2-amine]	1000 to 10000
O[C@H]1CCCC[C@H]1CNc1nnc(-c2ccc3cnccc3c2)s1 [Example 21, (1S,2S)-2-((5-(Isoquinolin-6-yl)-1,3,4-thiadiazol-2-ylamino)methyl)cyclohexanol]	50 to 1000
N[C@H](CNc1nnc(-c2ccc3ncncc3c2)s1)Cc1ccc(C(F)(F)F)cc1 [Example 25, N-((S)-2-Amino-3-(4-(trifluoromethyl)phenyl)propyl)-5-(quinazolin-6-yl)-1,3,4-thiadiazol-2-amine]	50 to 1000
FC(F)(F)c1ccc([C@@H]2CCN[C@@H]2CNc2nnc(-c3ccc4cnccc4c3)s2)cc1 [Example 27, 5-(Isoquinolin-6-yl)-N-(((2S,3S)-3-(4-(trifluoromethyl)phenyl)pyrrolidin-2-yl)methyl)-1,3,4-thiadiazol-2-amine]	1000 to 10000
N[C@H](C(=O)Nc1nnc(-c2ccc3cnccc3c2)s1)[C@@H](CO)c1ccc(C(F)(F)F)cc1 [Example 31, (2S,3S)-2-Amino-4-hydroxy-N-(5-(isoquinolin-6-yl)-1,3,4-thiadiazol-2-yl)-3-(4-(trifluoromethyl)phenyl)butanamide hydrochloride]	1000 to 10000
N[C@H](COc1nnc(-c2ccc3cnccc3c2)s1)Cc1ccc(C(F)(F)F)cc1 [Example 32, (2S)-1-(5-(isoquinolin-6-yl)-1,3,4-thiadiazol-2-yloxy)-3-(4-(trifluoromethyl)phenyl)propan-2-amine]	50 to 1000
N[C@H](CNc1nnc(-c2ccc3c(c2)CC(=O)N3)s1)Cc1ccc(Cl)cc1 [Example 34, 5-(5-((S)-2-Amino-3-(4-chlorophenyl)propylamino)-1,3,4-thiadiazol-2-yl)indolin-2-one]	< 50
N[C@H](CCc1nnc(-c2ccc3cnccc3c2)s1)Cc1ccc(C(F)(F)F)cc1 [Example 35, (2R)-4-(5-(Isoquinolin-6-yl)-1,3,4-thiadiazol-2-yl)-1-(4-(trifluoromethyl)phenyl)butan-2-amine]	< 50
N[C@H](CNc1nnc(-c2ccc3cnsc3c2)s1)Cc1ccc(C(F)(F)F)cc1 [Example 42, N-((S)-2-Amino-3-(4-(trifluoromethyl)phenyl)propyl)-5-(benzo[d]isothiazol-6-yl)-1,3,4-thiadiazol-2-amine]	< 50
N[C@H](CNc1nnc(-c2ccc3cnc(F)cc3c2)s1)Cc1ccc(C(F)(F)F)cc1 [Example 43, N-((S)-2-Amino-3-(4-(trifluoromethyl)phenyl)propyl)-5-(3-fluoroisoquinolin-6-yl)-1,3,4-thiadiazol-2-amine trifluoroacetate]	< 50
N[C@H](CNc1nnc(-c2ccc3cnc(F)cc3c2)s1)Cc1ccc(C(F)(F)F)nc1 [Example 44, N-((S)-2-Amino-3-(6-(trifluoromethyl)pyridin-3-yl)propyl)-5-(3-fluoroisoquinolin-6-yl)-1,3,4-thiadiazol-2-amine trifluoroacetate]	< 50

Now from value to molecule:

IC50 [nM]	Compound
< 50	N[C@H](CCc1nnc(-c2ccc3cnc(F)cc3c2)s1)Cc1ccc(C(F)(F)F)nc1 [Example 45, (2R)-4-(5-(3-Fluoroisoquinolin-6-yl)-1,3,4-thiadiazol-2-yl)-1-(6-(trifluoromethyl)pyridin-3-yl)butan-2-amine]
< 50	N[C@H](CCc1nnc(-c2ccc3[nH]ncc3c2)s1)Cc1ccc(C(F)(F)F)nc1 [Example 46, (2R)-4-(5-(1H-Indazol-5-yl)-1,3,4-thiadiazol-2-yl)-1-(6-(trifluoromethyl)pyridin-3-yl)butan-2-amine]
50 to 1000	N[C@H](CCc1nnc(-c2ccc3c(c2)CC(=O)N3)s1)Cc1ccc(C(F)(F)F)nc1 [Example 47, 5-(5-((R)-3-Amino-4-(6-(trifluoromethyl)pyridin-3-yl)butyl)-1,3,4-thiadiazol-2-yl)indolin-2-one trifluoroacetate]
< 50	N[C@H](CCc1nnc(-c2ccc3cnc(F)cc3c2)s1)Cc1ccc(C(F)(F)F)cc1 [Example 48, (2R)-4-(5-(3-Fluoroisoquinolin-6-yl)-1,3,4-thiadiazol-2-yl)-1-(4-(trifluoromethyl)phenyl)butan-2-amine]
< 50	N[C@H](CCc1nnc(-c2ccc3[nH]c(=O)oc3c2)s1)Cc1ccc(C(F)(F)F)cc1 [Example 49, 6-(5-((R)-3-Amino-4-(4-(trifluoromethyl)phenyl)butyl)-1,3,4-thiadiazol-2-yl)benzo[d]oxazol-2(3H)-one]
< 50	N[C@H](CNc1nnc(-c2ccc3[nH]c(=O)oc3c2)s1)Cc1ccc(Cl)cc1 [Example 50, 6-(5-((S)-2-Amino-3-(4-chlorophenyl)propylamino)-1,3,4-thiadiazol-2-yl)benzo[d]oxazol-2(3H)-one]
< 50	N[C@H](CNc1nnc(-c2ccc3c(c2)CC(=O)N3)s1)[C@@H](O)c1ccc(C(F)(F)F)cc1 [Example 51, 5-(5-((2R,3S)-2-Amino-3-hydroxy-3-(4-(trifluoromethyl)phenyl)propylamino)-1,3,4-thiadiazol-2-yl)indolin-2-one trifluoroacetate]
